{
  "source": "patent US8765953B2",
  "about": "“Compounds and methods for the treatment of pain and other diseases” (Aquilus Pharmaceuticals, Inc., priority 2008, dated 2014)",
  "key": {"[1]": {"assay": "In-vitro human microsomal stability", "format": "in vitro ADME", "conditions": "human microsomes, 1 microMolar compound, at T = 60 minutes", "procedure": "Human and mouse microsomal stability was determined for select compounds following the method of Houston (Houston, J. B; Biochem. Pharmacol. 47, (1994),1469).\n1 μM concentration of compound and separate human and mouse microsomes (0.3 mg/mL, BD bioscience) were used in the in-vitro assay. To ensure proper energy supply for microsomal degradation of compound, an energy regenerating system comprised of 100 mM potassium phosphate, 2 mM NADPH, 3 mM MgCl2, pH=7.4. and the microsomal protein is added to each sample and the resulting suspension is then incubated in duplicate for 60 min at 37° C. in a rotary shaker. A control is run for each test agent in duplicate omitting NADPH to detect NADPH-free degradation. At T=0 and T=60 min., an aliquot is removed from each experimental and control reaction and then mixed with an equal volume of ice-cold Stop Solution (consisting of 0.3% acetic acid in acetonitrile containing haloperidol and diclofenac as internal standards). […] The samples are then centrifuged to remove precipitated protein, and the supernatants are then analyzed by LC-MS/MS to determine the percentage of compound remaining. […] After separation on a C18 reverse phase HPLC column (Agilent, Waters, or equivalent) using an acetonitrile-water gradient system, peaks were analyzed by mass spectrometry (MS) using ESI ionization in MRM mode."}, "[2]": {"system": "spinal nerve ligation (SNL) mouse model", "assay": "Intrathecal (i.t.) SNL-mouse model of neuropathic pain, von Frey mechanical allodynia", "format": "in vivo, FVB male mice", "from_the_text": "To measure the neuropathic pain inhibiting affects of the MMP inhibitors of the present invention, the spinal nerve ligation (SNL) mouse model was run on a select number of compounds. This model which began with the work of Bennet and coworkers (Bennet, G. J. et al. Pain, 33, (1988), 87-107) and was optimized by Kim and Chung (Kim, S. H.; Chung, J. M. Pain, 50, (1992), 355-363) entails first, under magnification, the removal of one-third of the transverse process and then identifying and then dissecting free the L5 spinal nerve from the adjacent L4 spinal nerve in the mouse. The L5 spinal nerve is then tightly ligated using 6.0 silk suture. The nerve injury leads to hyperalgesia which manifests itself by enhanced responses to mechanical, heat and/or cooling stimuli. In this case, mechanical hyperalgesia is tested via Von Frey monofilaments in which filaments of varying thicknesses and bending force are individually applied to the plantar surface of the foot of the mouse. The threshold force necessary for paw withdrawal decreases dramatically after the nerve surgery. Potent pain inhibitors will reverse this affect resulting in greater force needing to be applied to cause the rodent paw to withdrawal.\nFollowing preoperative baseline (Day −2) paw threshold measurement, FVB male mice were subjected to SNL injury (Day −1). The next day (Day 0) after SNL surgery, the animals were tested for post-operative baseline threshold measurements for mechanical allodynia; and the animals were then randomly assigned to one of 3 treatment groups (see Table 9). Over the course of the study, paw withdrawal threshold of these animals was measured in response to mechanical stimulation using the von Frey Monofilament Test.\nTo avoid systemic effects of the MMP inhibitors, the MMP inhibitors of the present invention were delivered into the cerebral spinal fluid (CSF) space around lumbosacral spinal cord via intrathecal (i.t.) administration, with the idea of targeting MMPs in the DRG, spinal cord, and spinal CSF. Intrathecal MMP inhibitor administration could then target not only spinal cord cells but also DRG cells. Each intrathecal (i.t.) injection was carried out according to the technique of Hylden and Wilcox (Hylden J L, Wilcox G L. Eur. J. Pharmacol., 67, (1980), 313-6) 5.2 mg of each of the MMP inhibitors were first dissolved in 140 microliters of DMSO and then put into 1260 microliters of 0.5% hydroxypropyl cellulose (HPC) in water to make a fine suspension composed of compound in 10% DMSO-0.5% hydroxypropyl cellulose. 10 microliters of the mixture was injected into the intrathecal space of male FVB mice (weighing 22-25 grams each and obtained from the Jackson Laboratories, Bar Harbor, Me.), by lumbar puncture in a volume of 10 μl/mouse using a Hamilton microsyringe via a 30 gauge needle inserted between lumbar vertebrae 5 and 6. In brief, each animal was held firmly by the pelvic girdle in one hand, while the needle was inserted into the tissue on the right side of the L5 or L6 spinous process. The needle was moved forward and slipped into the groove between the spinous process and transverse process and gently moved forward to the intervertebral space at ˜10° angle. As the needle was inserted (˜0.5 cm) within the vertebral column a tail flick was evident, and the solution was then injected.\nTactile Allodynia Test. Mechanical allodynia was measured using the calibrated von Frey filaments (Semmes-Weinstein monofilaments; Stoelting, Wood Dale, Ill., U.S.A.). The plantar surface of the left injured paw of each animal was tested as described by Chaplan et al. (Journal of Neuroscience Methods, 53, (1994), 55-63). The Fifty percent paw withdrawal threshold response was determined by sequentially increasing or decreasing the stimulus strength according to the “up-down method” of Dixon (Annual Review Pharmacology Toxicology, 20, (1980), 441-462). […]"}},
  "data": [
    {"smiles": "Cc1ccc(C#Cc2ccc(S(=O)(=O)N[C@H](Cc3c[nH]c4ccccc34)C(=O)O)s2)cc1", "note": "[Compound 5, (R)-3-(1H-Indol-3-yl)-2-(5-p-tolylethynyl-thiophene-2-sulfonylamino)-propionic acid]", "values": [
      {"measurement": "Mean Remaining Parent with NADPH (%)", "setting": "[1]; with NADPH", "value": 86, "unit": "%"},
      {"measurement": "Mean Remaining Parent without NADPH (%)", "setting": "[1]; without NADPH (control)", "value": 89, "unit": "%"},
      {"measurement": "Paw withdrawal threshold, mean, Day 5", "setting": "[2]; i.t. 10 μl/mouse daily day 1-6", "value": 0.079, "unit": "grams"},
      {"measurement": "Paw withdrawal threshold, mean, Day 7", "setting": "[2]; i.t. 10 μl/mouse daily day 1-6", "value": 0.190, "unit": "grams"},
      {"measurement": "Paw withdrawal threshold, mean, Day 1", "setting": "[2]; i.t. 10 μl/mouse daily day 1-6, testing 2 hr after first i.t. injection", "value": 0.098, "unit": "grams"},
      {"measurement": "Paw withdrawal threshold, mean, Day 0 Postoperative Baseline", "setting": "[2]; i.t. study, post operative injury baseline, before treatment", "value": 0.050, "unit": "grams"},
      {"measurement": "Paw withdrawal threshold, mean, Day(-2) Pre-operative Baseline", "setting": "[2]; i.t. study, testing prior to SNL injury, before treatment", "value": 1.265, "unit": "grams"}
    ]}
  ]
}
